From patent publication US9694061B2, “Fully human antibodies to high molecular weight-melanoma associated antigen and uses thereof” (University of Pittsburgh—Of the Commonwealth System of …, priority 2008, dated 2017)

How the values were obtained:
scFv C21 [1] = assay: Inhibition by synthetic peptides of scFv C21 binding to Colo38 cells; parameters: species or system human; conditions: for Inhibition of the binding of scFv C21 to HMW-MAA+ melanoma cells Colo38: soluble peptide, FIG. 8
Experimental: FIG. 8. Inhibition of the reactivity of scFv C21 with HMW-MAA^+ cells Colo38 by synthetic peptides P1C21 and P3C21 and by modified peptide P3C21. Varying concentrations of synthetic peptides P1C21 (-●-), P3C21(-▴-), P3A5 (-⋄-), P3V7 ( ? ) and P3S10 ( ? ) were incubated for 2 h at 4° C. with 50 μl of PP scFv (1:1600 dilution in 1% BSA-PBS) and 50 μl of biotinylated mAb 9E10 (2.5 μg/ml 1% BSA-PBS). The mixture was then transferred to wells containing cells Colo38. Binding of scFvC21 was detected using SA-HRP (top panel). Results are expressed as % inhibition. The unrelated peptide MART-1 (-∇-) and the scFv #28 (bottom panel) which recognizes an unrelated HMW-MAA determinant were used as specificity controls.
The ELISA to test the reactivity of soluble scFv antibodies with synthetic peptides and melanoma cells and of mouse immune sera with melanoma cells and with peptides was performed as described (Desai et al., Cancer Res 58:2417-2425, 1998; Desai et al., J Immunol 165:3275-3283, 2000; Matsui et al., J Immunol 139:2088-2095, 1987). Results are expressed as absorbance of optical density (O.D.) at 450 nm. The competition assay to map the antigenic determinant recognized by scFv C21 was performed by mixing biotinylated scFv C21 (0.25 μg/well) with two-fold dilutions of mouse mAb or scFv PP or by mixing biotinylated mAb (at an optimal amount giving absorbance, measured at 450 nm of 1.0) with two fold dilutions of scFv PP. […] Binding of biotinylated scFv antibodies and biotinylated mAb to target cells was measured by sequential incubation with SA-HRP and substrate as described (Noronha et al., J Immunol 161:2968-2976, 1998). The results are expressed as percent inhibition by mAb, scFv or peptide (competitor or inhibitor) of scFv or mAb binding to HMW-MAA^+ cells. The percent inhibition was calculated using the formula: % inhibition=((OD450 in the absence of inhibitor−OD450 in the presence of inhibitor)/OD450 in the absence of inhibitor)×100.

scFv C21 [2] = assay: ELISA of synthetic peptides immobilized on plate with scFv C21; assay type: binding, human; conditions: peptide immobilized by 0.25% glutaraldehyde PBS
Experimental: FIG. 7. Reactivity in ELISA of scFv C21 with synthetic peptides derived from those isolated by panning the phage display peptide library X15 with scFv C21. Ninety-six well plates were coated for 2 h at 37° C. with synthetic peptides P1C21 ( ? ), P2C21 (125 μM) ( ? ), and P3C21 (125 μM) ( ? ), in 0.25% glutaradehyde-PBS. Following blocking with PBS-1% BSA, wells were incubated for 2 h at room temperature with 50 μl of PP scFv C21 at and 50 μl of biotinylated mAb 9E10 (2.5 μg/ml 1% BSA-PBS). Binding of scFv antibody to ? peptides was detected by addition of SA-HRP. Results are expressed as absorbance at […]. […]
The ELISA to test the reactivity of soluble scFv antibodies with synthetic peptides and melanoma cells and of mouse immune sera with melanoma cells and with peptides was performed as described (Desai et al., Cancer Res 58:2417-2425, 1998; Desai et al., J Immunol 165:3275-3283, 2000; Matsui et al., J Immunol 139:2088-2095, 1987). Results are expressed as absorbance of optical density (O.D.) at 450 nm. The competition assay to map the antigenic determinant recognized by scFv C21 was performed by mixing biotinylated scFv C21 (0.25 μg/well) with two-fold dilutions of mouse mAb or scFv PP or by mixing biotinylated mAb (at an optimal amount giving absorbance, measured at 450 nm of 1.0) with two fold dilutions of scFv PP. […]

HMW-MAA^+ cells Colo38 = assay: Delayed-type hypersensitivity (DTH) reaction in immunized mice; assay type: in vivo, BALB/c mice; conditions: mice immunized six times, cells injected day 132
Experimental: FIG. 12. DTH reaction to HMW-MAA^+ melanoma cells Colo38 in BALB/c mice immunized with peptide P1C21. Irradiated (20K rads) HMW-MAA^+ cells Colo38 (5×10^5 cells/mouse) ( ? ) and HMW-MAA^− LG2 cells (5×10^5 cells/mouse) (□) were injected on day 132 into the right and left hind footpad, respectively, of BALB/c mice, which had been immunized six times with peptide P1C21 on days 0, 21, 42, 63, 84 and 105. Amount of swelling induced by the injected cells was measured and calculated by subtracting the thickness of the footpad measured at time 0 h from that measured 24 h after the injection of cells. Mice immunized with control peptide MB1194-208 using the same schedule were injected at the same time point with either Colo38 or LG2 cells, and used as controls. *p<0.05.
Mice which had been immunized six times with peptide P1C21 or control peptide were injected on day 132 s.c. into the right and left hind footpads with irradiated HMW-MAA^+ cells Colo38 (5×10^5 cells/injection/) and HMW-MAA^− cells LG2 (5×10^5 cells/injection/), respectively. The thickness of each footpad was measured and calculated at the indicated times as previously described (Luo et al., J Immunol 174:7104-7110, 2005, herein incorporated by reference).

[3] = system: HMW-MAA^+ melanoma cells Colo38; assay: Immunization of BALB/c mice with peptide-KLH conjugate, HMW-MAA-specific antibodies in sera; assay type: in vivo; conditions: control peptide immunization
Experimental: FIG. 9. Development of antibodies with selective reactivity with HMW-MAA^+ cells Colo38 in BALB/c mice immunized with peptide P1C21 and boosted with Colo 38 cells. Mice were immunized with KLH-conjugated peptide P1C21 ( ? ) (50 μg/injection) on day 0, 21, 42, 63, 84 and 105, and with HMW-MAA^+ Colo38 melanoma cells (5×10^5 cells/injection) on day 132. Sera were harvested one week before the first immunization, and one week after each immunization. Two-fold dilutions of sera (100 μl/well) were incubated with HMW-MAA^+ Colo38 melanoma cells (1×10^5/well). Following an additional incubation with HRP-conjugated goat anti-mouse IgG antibodies, the reaction was developed using TMB substrate. O.D. was measured at 450 nm. Results are expressed as the mean±SD of the highest dilution of sera giving 50% of the maximal binding to HMW-MAA^+ cells. Sera from mice immunized with peptide MB1194-208 were used as controls. *p<0.05.
FIG. 10. Flow cytometry analysis of HMW-MAA^+ M14#5/HMW-MAA melanoma cells stained with antibodies elicited by peptide P1C21 and HMW-MAA^+ cells Colo38 in BALB/c mice. […] Cells were then analyzed with a FACScan™ flow cytometry. Results are expressed as fluorescence intensity (empty histogram). […]
FIG. 11. […] Antigens were eluted from the immunoadsorbent, and analyzed by SDS-PAGE in an 8% polyacrylamide gel. […]

scFv C21 [4] = assay: Kinetic binding studies by surface plasmon resonance (BIACORE 3000); parameters: species or system human; conditions: scFv C21 immobilized, 25° C., peptide 1 to 32 μM, 1:1 Langmurian model
Experimental: Binding experiments were performed with the surface plasmon resonance based biosensor instrument BIACORE™ 3000 (Biacore AB, Uppsala, Sweden), at 25° C. Immobilization of scFv C21 in the sensor surface was performed following the standard amine coupling procedure according to the manufacturer's instructions. Briefly, 35 μl of a solution containing 0.2 M N-ethyl-N′-(dimethylaminopropyl) carbodiimide (EDC) and 0.05M N-hydroxysuccinimide (NHS), were injected at a flow rate of 5 μl/min to activate carboxyl groups on the sensor chip surface. scFv C21 ([…] of 10 mM NaOAc buffer, pH 5.0) was flowed over the chip surface at a flow rate of 20 μl/min until the desired bound protein level was reached. Unreacted scFv C21 was washed out and unreacted activated groups were blocked by the injection of 35 μl of 1 M ethanolamine at 5 μl/min. The final immobilization response of scFv C21 was 3,000 RU. A reference surface was generated simultaneously under the same conditions but without scFv C21 injection and used as a blank to correct for instrument and buffer artifacts. Peptides were injected at variable concentrations at different flow rates from 20-100 μl/min. Peptides binding to scFv C21 immobilized on the chip was monitored in real time.
To exclude that binding constants obtained from SPR were not affected by either rebinding of the analyte or mass transport effects, studies were repeated at different flow rates (20-100 μl/min). Kinetic constants obtained at both flow rates remained unchanged.
To evaluate binding, peptides P1C21 and P3C21 were injected at concentrations ranging from 1 to 32 μM. The resulting sensograms were used for estimation of the kinetic constants (kon and koff) by global fitting to the 1:1 Langmurian interaction model. The binding constant (Kd) was calculated for each peptide as a koff/kon ratio.

Row | Koff (scFv C21 [4]) [s⁻¹] | Kon (scFv C21 [4]) [M⁻¹ s⁻¹] | Substance | Inhibition of the binding of scFv C21 to HMW-MAA+ melanoma cells Colo38 (scFv C21 [1]) | Reactivity of immobilized synthetic peptide with scFv C21 in ELISA (scFv C21 [2]) | DTH response: swelling of footpad injected with Colo38 cells versus LG2 cells (HMW-MAA^+ cells Colo38) | Reactivity of immune sera with Colo38 cells [3] | Effect of Asp to Ser replacement at position 10 on ability of P3C21 to inhibit reactivity of scFv C21 with Colo38 cells (scFv C21 [1]; compared with P3C21)
1 | – | – | EARNWHDFPIHPRTL (listed as Homo sapiens) [P2C21] | did not inhibit the binding of scFv C21 | reacted specifically with scFv C21 | – | – | –
2 | – | – | MB1194-208: irrelevant peptide derived from the sequence of the proteasome subunit MB1, used as control (AYGVMDRGYSYDLEV) | – | – | no swelling of the footpad was observed | displayed no reactivity with Colo38 cells | –
3 | 0.0655 | 2170 | RPYRYDPLGDLKSRH [P3C21] | inhibited the binding of scFv C21 to HMW-MAA^+ cells in a dose dependent fashion | did not | – | – | –
4 | 0.00307 | 917 | RPYRYDPLGSLKSRH [P3S10] | – | – | – | – | only a slight effect
